Assay results taken from PubChem BioAssay AID624142 (National Center for Advancing Translational Sciences (NCATS), 2012).

System: human liver microsomes, half-life, LC-MS/MS
Test: qHTS Assay to Find Inhibitors of T. brucei phosphofructokinase: Human Liver Microsome Stability
Settings: at 1 µM; hits give high values

O=C(Cc1ccc(Cl)c(Cl)c1)Nc1ccc(S(=O)(=O)Nc2ccon2)cc1
half-life: 5.5 h
